The subject of the assay is BDF1 mice, P388 leukemia ip, median survival T/C. Briefly: NCI In Vivo Anticancer Drug Screen. Data for tumor model P388 Leukemia (intraperitoneal) in B6D2F1 (BDF1) mice. Particulars: endpoint: median survival time, higher = longer survival. The gist of the method: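 Steps: implant the tumour, treat one group with compound and another with vehicle, record survival, then divide treated by control.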

[1] abbreviates: dose: 0.5 mg/kg/injection, schedule: Q01DX009 (ip), vehicle: saline.
Setting [2] is: dose: 1.0 mg/kg/injection, schedule: Q01DX009 (ip), vehicle: saline.
Where [3] appears, read: dose: 100.0 mg/kg/injection, schedule: Q01DX001 (ip), vehicle: saline with Tween-80.
Where [4] appears, read: dose: 25.0 mg/kg/injection, schedule: Q04DX003 (ip), vehicle: water.
Setting [5] is: dose: 50.0 mg/kg/injection, schedule: Q04DX003 (ip), vehicle: water.
[6] abbreviates: dose: 100.0 mg/kg/injection, schedule: Q04DX003 (ip), vehicle: Klucel (hydroxypropylcellulose) (HPC).
[7] abbreviates: dose: 100.0 mg/kg/injection, schedule: Q04DX003 (ip), vehicle: water.
[8] abbreviates: dose: 200.0 mg/kg/injection, schedule: Q04DX003 (ip), vehicle: water.
The mark [9] stands for this setting: dose: 400.0 mg/kg/injection, schedule: Q04DX003 (ip), vehicle: Klucel (hydroxypropylcellulose) (HPC).
Where [10] appears, read: dose: 400.0 mg/kg/injection, schedule: Q04DX003 (ip), vehicle: water.
Where [11] appears, read: dose: 100.0 mg/kg/injection, schedule: Q04DX003 (ip), vehicle: saline sonified.
Where [12] appears, read: dose: 200.0 mg/kg/injection, schedule: Q04DX003 (ip), vehicle: saline sonified.
The mark [13] stands for this setting: dose: 100.0 mg/kg/injection, schedule: Q01DX009 (ip), vehicle: Klucel (hydroxypropylcellulose) (HPC).
Where [14] appears, read: dose: 200.0 mg/kg/injection, schedule: Q01DX009 (ip), vehicle: Klucel (hydroxypropylcellulose) (HPC).
[15] abbreviates: dose: 50.0 mg/kg/injection, schedule: Q01DX009 (ip), vehicle: saline.

Inconclusive results and toxic doses are left out.

On to `CO[C@H]1C[C@H](O[C@H]2CC[C@]3(C=O)[C@H]4CC[C@]5(C)[C@@H](C6=CC(=O)OC6)CC[C@]5(O)[C@@H]4CC[C@]3(O)C2)O[C@H](C)[C@H]1O[C@@H]1O[C@H](CO)[C@@H](O)[C@H](O)[C@H]1O`, for which the T/C by setting is: (dose: 0.25 mg/kg/injection, schedule: Q01DX009 (ip), vehicle: saline) 104 % of control; (dose: 0.25 mg/kg/injection, schedule: Q04DX003 (ip), vehicle: saline) 91 % of control; under setting [1], 100 % of control; (dose: 0.5 mg/kg/injection, schedule: Q04DX003 (ip), vehicle: saline) 104 % of control; under setting [2], 90 % of control; (dose: 1.0 mg/kg/injection, schedule: Q01DX010 (ip), vehicle: saline) 95 % of control. Also, the T/C (dose: 1.0 mg/kg/injection, schedule: Q04DX003 (ip), vehicle: saline) is 100 % of control and the T/C (dose: 2.0 mg/kg/injection, schedule: Q04DX003 (ip), vehicle: saline) was 100 % of control.
With `N#C/C(=C\c1ccc(O)cc1)c1ccc([N+](=O)[O-])cc1`, the T/C reads like this: (dose: 25.0 mg/kg/injection, schedule: Q01DX001 (ip), vehicle: saline) 98 % of control; (dose: 50.0 mg/kg/injection, schedule: Q01DX001 (ip), vehicle: saline) 100 % of control; under setting [3], 97 % of control; (dose: 100.0 mg/kg/injection, schedule: Q01DX001 (ip), vehicle: saline) 96 % of control.
As to `CC(C)(Br)C(=O)c1ccc(-c2ccccc2)cc1`, the T/C is 109 % of control (dose: 12.5 mg/kg/injection, schedule: Q01DX009 (ip), vehicle: water); 96 % of control (dose: 25.0 mg/kg/injection, schedule: Q01DX009 (ip), vehicle: water); 107 % of control under setting [4]; 117 % of control (dose: 50.0 mg/kg/injection, schedule: Q01DX009 (ip), vehicle: water); 107 % of control under setting [5]; 102 % of control (dose: 100.0 mg/kg/injection, schedule: Q01DX009 (ip), vehicle: water). Moreover, the T/C runs as follows: under setting [6], 90 % of control; under setting [7], 107 % of control; (dose: 200.0 mg/kg/injection, schedule: Q01DX009 (ip), vehicle: water) 109 % of control; (dose: 200.0 mg/kg/injection, schedule: Q04DX003 (ip), vehicle: Klucel (hydroxypropylcellulose) (HPC)) 100 % of control; under setting [8], 107 % of control; (dose: 400.0 mg/kg/injection, schedule: Q01DX009 (ip), vehicle: water) 117 % of control. The T/C is 100 % of control under setting [9] and 110 % of control under setting [10].
For `COc1ccccc1Cc1c(OC)cc(OC)c(C(=O)CCc2ccccc2)c1O`, the T/C is 103 % of control under setting [1] and 106 % of control under setting [2].
Consider `CC(C)CC(NC(=O)CF)C(=O)O` (stereo not given), for which the T/C (dose: 2.5 mg/kg/injection, schedule: Q01DX009 (ip), vehicle: saline) was 111 % of control.
With `CCCCCCCCCCCCCSCCCCCCCCCCCCSCCCCCCCCCCCC`, the T/C reads like this: (dose: 100.0 mg/kg/injection, schedule: Q01DX001 (ip), vehicle: saline sonified) 86 % of control; (dose: 200.0 mg/kg/injection, schedule: Q01DX001 (ip), vehicle: saline sonified) 86 % of control; (dose: 400.0 mg/kg/injection, schedule: Q01DX001 (ip), vehicle: saline sonified) 90 % of control.
In the case of `C=C1C(=O)OC2/C=C(\C)CC(O)/C=C(/C)CC(OC(=O)C(O)(CO)C(C)S)C12` (stereo not given), the T/C was 120 % of control (dose: 100.0 mg/kg/injection, schedule: Q04DX002 (ip), vehicle: Klucel (hydroxypropylcellulose) (HPC)) and 118 % of control (dose: 200.0 mg/kg/injection, schedule: Q04DX002 (ip), vehicle: Klucel (hydroxypropylcellulose) (HPC)).
On to `CCCCNC(C)C1(O)Cc2c(O)c3c(c(O)c2C(OC2CC(N)C(O)C(C)O2)C1)C(=O)c1c(OC)cccc1C3=O` (stereo not given), for which the T/C by setting is: (dose: 10.0 mg/kg/injection, schedule: Q01DX009 (ip), vehicle: water) 157 % of control; (dose: 20.0 mg/kg/injection, schedule: Q01DX009 (ip), vehicle: water) 168 % of control; under setting [4], 116 % of control; (dose: 40.0 mg/kg/injection, schedule: Q01DX009 (ip), vehicle: water) 185 % of control; under setting [5], 114 % of control; under setting [7], 105 % of control. The T/C is, setting by setting: under setting [8], 151 % of control; under setting [10], 118 % of control.
On to `CCC(CC)N(C)C(C)(C)CO`, for which the T/C runs as follows: (dose: 25.0 mg/kg/injection, schedule: Q01DX009 (ip), vehicle: saline with Tween-80) 100 % of control; (dose: 50.0 mg/kg/injection, schedule: Q01DX009 (ip), vehicle: saline with Tween-80) 91 % of control; (dose: 50.0 mg/kg/injection, schedule: Q04DX003 (ip), vehicle: saline sonified) 104 % of control; (dose: 100.0 mg/kg/injection, schedule: Q01DX009 (ip), vehicle: saline with Tween-80) 108 % of control; under setting [11], 104 % of control; under setting [12], 113 % of control.
With `COc1ccc(OC)c(NC(=O)Sc2c(Cl)c(Cl)nc(Cl)c2Cl)c1`, the T/C is, setting by setting: (dose: 25.0 mg/kg/injection, schedule: Q01DX009 (ip), vehicle: Klucel (hydroxypropylcellulose) (HPC)) 123 % of control; under setting [13], 124 % of control; under setting [14], 123 % of control.
For the molecule `CCn1cnc2c(SC3CCCC3)ncnc21`, the T/C is, setting by setting: under setting [11], 100 % of control; under setting [12], 100 % of control; (dose: 400.0 mg/kg/injection, schedule: Q04DX003 (ip), vehicle: saline sonified) 100 % of control.
Regarding `CCCCc1ccc(C(=O)O)nc1`, the T/C is 100 % of control (dose: 12.5 mg/kg/injection, schedule: Q01DX009 (ip), vehicle: saline); 102 % of control (dose: 25.0 mg/kg/injection, schedule: Q01DX009 (ip), vehicle: saline); 102 % of control under setting [15].
For the molecule `CC1CCCC(NC(=O)N(CCCl)N=O)C1` (stereo not given), the T/C (dose: 0.25 mg/kg/injection, schedule: Q04DX003 (ip), vehicle: saline with Tween-80) is 115 % of control; the T/C (dose: 0.5 mg/kg/injection, schedule: Q04DX003 (ip), vehicle: saline with Tween-80) is 100 % of control; the T/C (dose: 1.0 mg/kg/injection, schedule: Q04DX003 (ip), vehicle: saline with Tween-80) is 95 % of control; the T/C (dose: 16.5 mg/kg/injection, schedule: Q04DX003 (ip), vehicle: saline with Tween-80) was 240 % of control; the T/C (dose: 25.0 mg/kg/injection, schedule: Q04DX003 (ip), vehicle: saline with Tween-80) is 259 % of control; the T/C (dose: 37.5 mg/kg/injection, schedule: Q04DX003 (ip), vehicle: saline with Tween-80) is 272 % of control. The T/C (dose: 100.0 mg/kg/injection, schedule: Q04DX003 (ip), vehicle: saline with Tween-80) was 177 % of control.
On to `Cc1cc(Nc2cccc(Cl)c2)cc(=O)[nH]1`, for which the T/C by setting is: (dose: 50.0 mg/kg/injection, schedule: Q01DX001 (ip), vehicle: saline with Tween-80) 113 % of control; under setting [3], 100 % of control; (dose: 200.0 mg/kg/injection, schedule: Q01DX001 (ip), vehicle: saline with Tween-80) 98 % of control.
For `COc1ccc(C=O)c(O)c1`, the T/C runs as follows: under setting [13], 90 % of control; under setting [6], 92 % of control; under setting [14], 104 % of control; (dose: 400.0 mg/kg/injection, schedule: Q01DX009 (ip), vehicle: Klucel (hydroxypropylcellulose) (HPC)) 90 % of control; under setting [9], 96 % of control.
In the case of `CN(C)C=Nc1cc(Cl)c(Cl)cc1Cl`, the T/C reads like this: under setting [15], 100 % of control; (dose: 100.0 mg/kg/injection, schedule: Q01DX009 (ip), vehicle: saline) 110 % of control; (dose: 200.0 mg/kg/injection, schedule: Q01DX009 (ip), vehicle: saline) 111 % of control.
